{
  "source": "patent US9603928B2",
  "about": "“Medicinal composition for promoting synthesis of protoporphyrin IX” (SBI Pharmaceuticals Co., Ltd., priority 2013, dated 2017)",
  "assay_type_in_all_cases": "cell-based",
  "key": {"[1]": {"tested_on": "Multi-drug resistant Pseudomonas aeruginosa (MDRP: ATCC BAA-2110)", "assay": "HPLC measurement of coproporphyrinogen III (CPIII) and protoporphyrin IX (PpIX) in MDRP cultured with ALA / ALA + EDTA", "conditions": "4 hours after start of culture, ALA 0.5 mg/ml, EDTA 400 mg/ml where added", "method": "Multi-drug resistant Pseudomonas aeruginosa (MDRP: ATCC BAA-2110) was placed in tryptic soy broth medium (TBS: from DIFCO), and cultured at 37° C. for 24 hours. With an absorptiometer, the TBS medium comprising the cultured MDRP was adjusted to 1×10^9 CFU (Colony forming unit)/ml. In a 12-well plate, the following solutions (1)-(3) were each prepared and cultured. (1): TBS medium comprising MDRP adjusted to 1×10^9 CFU/ml, (2): a solution of (1) and ALA added to a final concentration of 0.5 mg/ml, and (3): a solution of (1) and ALA added to a final concentration of 0.5 mg/ml and EDTA added to a final concentration of 400 mg/ml. The solutions were collected 4 hours after the start of culture, and suspended in 0.25 ml of PBS per 1 g of the pelleted bacteria. To 0.2 ml of the suspension, 0.01 ml of 50% acetic acid and 0.9 ml of DMF/IPA (100:1) were added, vortexed, and separated by centrifugation (14, 000 rpm, 5 min, 4° C.). The concentrations of coproporphyrinogen III (CPIII) and protoporphyrin IX (PpIX) in the supernatant after centrifugal separation were measured with HPLC."}, "[2]": {"tested_on": "Multi-drug resistant Pseudomonas aeruginosa (MDRP: ATCC BAA-2110)", "assay": "Number of MDRP bacteria after ALA + EDTA with or without PDT (LED 410 nm)", "conditions": "no PDT, 18 hours of culture, ALA 1 mg/ml, EDTA 400 mg/ml where added, start 1×10^9 CFU/ml", "method": "Multi-drug resistant Pseudomonas aeruginosa (MDRP: ATCC BAA-2110) was cultured for 24 hours at 37° C. with tryptic soy broth medium (TBS: from DIFCO). Then, the TBS medium comprising MDRP at 1×10^9 CFU/ml was dispensed in a 12-well plate at 1 ml per well, and ALA was added to a final concentration of 1 mg/ml and EDTA was added to a final concentration of 400 mg/ml. These were divided into the group subjected to PDT (PDT group) and the group not subjected to PDT (non-PDT group) (each n=1). For the control group, only ALA at a final concentration of 1 mg/ml was added to 1 ml of the TBS medium comprising MDRP at 1×10^9 CFU/ml, and PDT was not carried out. The control group and the non-PDT group were cultured for 18 hours, and the number of bacteria in each well was counted. The PDT group was cultured for 18 hours, irradiated with LED (410 nm) at 50 J/cm^2, and then the number of bacteria was counted."}, "[3]": {"tested_on": "Multi-drug resistant Pseudomonas aeruginosa (MDRP: BAA-2110)", "assay": "Number of MDRP bacteria after ALA + chelating agent other than EDTA with or without LED irradiation (PDT)", "conditions": "Irradiation No, average values", "method": "Multi-drug resistant Pseudomonas aeruginosa (MDRP: BAA-2110) was cultured in tryptic soy broth medium (TBS: from DIFCO) for 24 hours at 37° C. Next, the TBS medium comprising MDRP was dispensed in a 12-well dish at 1 ml per well (1×10^4−2×10^5 CFU/mL). ALA at a final concentration of 1 mg/ml and a chelating agent other than EDTA (2.5 mg/mL of citric acid, 2.5 mg/mL of malic acid, 1 mg/mL of diethylenetriaminepentaacetic acid (DTPA), 1 mg/mL of triethylenetetramine-N,N,N′,N″,N′″,N″′-hexaacetic acid, 1 mg/mL of N-(2-hydroxyethyl) iminodiacetic acid, and 1 mg/mL of deferoxamine mesylate, each at final concentration) were added to each dish. For the control group, only ALA at a final concentration of 1 mg/ml was added to 1 ml of the TBS medium comprising MDRP. Next, these were cultured for 5 hours, and the number of bacteria in each well was counted. The PDT group was cultured for 5 hours, and then irradiated with LED (410 nm) at 50 J/cm^2, after which the number of bacteria was counted, and further the number of bacteria at 19 hours after irradiation was also counted."}, "[4]": {"conditions": "supernatant of bacterial extract, HPLC"}},
  "data": [
    {"smiles": "NCC(=O)CCC(=O)O", "note": "[ALA, 5-aminolevulinic acid]", "values": [
      {"measurement": "proportion of PpIX against CPIII", "setting": "[1]", "result": "approximately 5.5%"},
      {"measurement": "CPIII", "setting": "[1]; [4]", "result": 889.6, "unit": "nM"},
      {"measurement": "PpIX", "setting": "[1]; [4]", "result": 49.0, "unit": "nM"},
      {"measurement": "Bacterial count (CFU/ml)", "setting": "[2]; listed as Control", "result": "4.2 × 10^9 CFU/ml"},
      {"measurement": "Bacterial count (CFU/ml)", "setting": "[2]; listed as control", "result": "4.2×10^9 CFU/ml"},
      {"measurement": "5 hours after addition of ALA + chelating agent (CFU/mL)", "setting": "[3]; ALA 1 mg/ml", "result": "3.6 × 10^5 CFU/mL"},
      {"measurement": "19 hours after irradiation (CFU/mL)", "setting": "[3]; ALA 1 mg/ml", "result": "1.4 × 10^9 CFU/mL"},
      {"measurement": "At the time of culture (CFU/mL)", "setting": "[3]; starting count", "result": "5.7 × 10^4 CFU/mL"}
    ]}
  ]
}
